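Compound exposure: 48 hours, 5 concentrations, 96-well plates. GI50 marks 50% less growth.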 Calls of active or inactive are those of the source. Rule as the data show it: active = GI50 up to about 1.1 µM and inactive = higher.
Experiments:
Assay in all cases: NCI-60 cell line screen, 48 h
RXF 393 = tested on: RXF 393
HL-60 = tested on: HL-60
SF-295 = tested on: SF-295
SNB-75 = tested on: SNB-75
T47D = tested on: T47D
MCF7 = tested on: MCF7
NCI-H460 = tested on: NCI-H460
K562 = tested on: K562
SF-539 = tested on: SF-539
KM12 = tested on: KM12
OVCAR-5 = tested on: OVCAR-5
PC-3 = tested on: PC-3
UACC-62 = tested on: UACC-62
SK-MEL-2 = tested on: SK-MEL-2
EKVX = tested on: EKVX
SK-MEL-5 = tested on: SK-MEL-5
786-0 = tested on: 786-0
DU-145 = tested on: DU-145
COLO 205 = tested on: COLO 205
SNB-19 = tested on: SNB-19
UACC-257 = tested on: UACC-257
U-251 = tested on: U-251
MOLT-4 = tested on: MOLT-4
A549 = tested on: A549
UO-31 = tested on: UO-31
HCT-15 = tested on: HCT-15
NCI/ADR-RES = tested on: NCI/ADR-RES
IGROV-1 = tested on: IGROV-1
Malme-3M = tested on: Malme-3M
SK-MEL-28 = tested on: SK-MEL-28
SF-268 = tested on: SF-268
OVCAR-4 = tested on: OVCAR-4
CAKI-1 = tested on: CAKI-1
CCRF-CEM = tested on: CCRF-CEM
NCI-H522 = tested on: NCI-H522
HCC 2998 = tested on: HCC 2998
HCT-116 = tested on: HCT-116
M14 = tested on: M14
A498 = tested on: A498
OVCAR-3 = tested on: OVCAR-3
SN12C = tested on: SN12C
TK-10 = tested on: TK-10
LOX IMVI = tested on: LOX IMVI
MDA-MB-231 = tested on: MDA-MB-231
BT-549 = tested on: BT-549
Hs-578T = tested on: Hs-578T
OVCAR-8 = tested on: OVCAR-8
HOP-92 = tested on: HOP-92
MDA-MB-435 = tested on: MDA-MB-435
HOP-62 = tested on: HOP-62
SK-OV-3 = tested on: SK-OV-3
NCI-H23 = tested on: NCI-H23
NCI-H226 = tested on: NCI-H226
MDA-N = tested on: MDA-N
ACHN = tested on: ACHN
RPMI-8226 = tested on: RPMI-8226
HT-29 = tested on: HT-29
SW-620 = tested on: SW-620
SR = tested on: SR

COc1cc(/C=C2\CC3C4CC[C@H]5C[C@@H](O)CC[C@]5(C)C4CC[C@]3(C)\C2=N\O)cc(OC)c1OC (stereo not given in full)
GI50 (RXF 393): 7.74 µM (inactive)
GI50 (HL-60): 3.46 µM (inactive)
GI50 (SF-295): 3.97 µM (inactive)
GI50 (SNB-75): 13.4 µM (inactive)
GI50 (T47D): 4.73 µM (inactive)
GI50 (MCF7): 4.05 µM (inactive)
GI50 (NCI-H460): 8.05 µM (inactive)
GI50 (K562): 4.66 µM (inactive)
GI50 (SF-539): 10.8 µM (inactive)
GI50 (KM12): 6.9 µM (inactive)
GI50 (OVCAR-5): 22.1 µM (inactive)
GI50 (PC-3): 5.43 µM (inactive)
GI50 (UACC-62): 14.3 µM (inactive)
GI50 (SK-MEL-2): 11.7 µM (inactive)
GI50 (EKVX): 8.81 µM (inactive)
GI50 (SK-MEL-5): 5.21 µM (inactive)
GI50 (786-0): 7.96 µM (inactive)
GI50 (DU-145): 13.1 µM (inactive)
GI50 (COLO 205): 5.94 µM (inactive)
GI50 (SNB-19): 29.7 µM (inactive)
GI50 (UACC-257): 10.7 µM (inactive)
GI50 (U-251): 10.6 µM (inactive)
GI50 (MOLT-4): 5.33 µM (inactive)
GI50 (A549): 7 µM (inactive)
GI50 (UO-31): 3.44 µM (inactive)
GI50 (HCT-15): 9.48 µM
GI50 (NCI/ADR-RES): 12.9 µM (inactive)
GI50 (IGROV-1): 23 µM (inactive)
GI50 (Malme-3M): 16.7 µM (inactive)
GI50 (SK-MEL-28): 14.7 µM (inactive)
GI50 (SF-268): 24 µM (inactive)
GI50 (OVCAR-4): 5.74 µM (inactive)
GI50 (CAKI-1): 4.09 µM (inactive)
GI50 (CCRF-CEM): 6.47 µM (inactive)
GI50 (NCI-H522): 13.1 µM (inactive)
GI50 (HCC 2998): 10.1 µM (inactive)
GI50 (HCT-116): 6.19 µM (inactive)
GI50 (M14): 14.4 µM (inactive)
GI50 (A498): 11.2 µM (inactive)
GI50 (OVCAR-3): 3.27 µM (inactive)
GI50 (SN12C): 13.7 µM (inactive)
GI50 (TK-10): 16.8 µM (inactive)
GI50 (LOX IMVI): 11.5 µM (inactive)
GI50 (MDA-MB-231): 14.3 µM (inactive)
GI50 (BT-549): 14.9 µM (inactive)
GI50 (Hs-578T): 8.3 µM (inactive)
GI50 (OVCAR-8): 17.3 µM (inactive)
GI50 (HOP-92): 15.2 µM (inactive)
GI50 (MDA-MB-435): 7.41 µM (inactive)
GI50 (HOP-62): 12 µM (inactive)
GI50 (SK-OV-3): 19.2 µM (inactive)
GI50 (NCI-H23): 15.6 µM (inactive)
GI50 (NCI-H226): 10.8 µM (inactive)
GI50 (MDA-N): 14.8 µM (inactive)
GI50 (ACHN): 6.59 µM (inactive)
GI50 (RPMI-8226): 4.23 µM (inactive)
GI50 (HT-29): 7.36 µM (inactive)
GI50 (SW-620): 18.2 µM (inactive)

CC(C)=CCC[C@](C)(O[C@@H]1O[C@H](CO)[C@@H](O)[C@H](O)[C@H]1O)[C@H]1CC[C@]2(C)[C@@H]1[C@H](O)C[C@@H]1[C@@]3(C)CC[C@@H](O)C(C)(C)[C@@H]3[C@@H](O[C@@H]3O[C@H](CO)[C@@H](O)[C@H](O)[C@H]3O)C[C@]12C.C[C@@H]1O[C@@H](O[C@H]2[C@H](O[C@H]3C[C@]4(C)[C@H](C[C@H](O)[C@@H]5[C@@H]([C@@]6(C)CC[C@H](C(C)(C)O)O6)CC[C@]54C)[C@@]4(C)CC[C@H](O)C(C)(C)[C@H]34)O[C@H](CO)[C@@H](O)[C@@H]2O)[C@H](O)[C@H](O)[C@H]1O
GI50 (RXF 393): > 100 µM (inactive)
GI50 (HL-60): > 100 µM (inactive)
GI50 (SF-295): > 100 µM (inactive)
GI50 (SNB-75): > 100 µM (inactive)
GI50 (T47D): > 100 µM (inactive)
GI50 (MCF7): > 100 µM (inactive)
GI50 (NCI-H460): > 100 µM (inactive)
GI50 (K562): > 100 µM (inactive)
GI50 (SF-539): > 100 µM (inactive)
GI50 (KM12): > 100 µM (inactive)
GI50 (OVCAR-5): > 100 µM (inactive)
GI50 (PC-3): > 100 µM (inactive)
GI50 (UACC-62): > 100 µM (inactive)
GI50 (SK-MEL-2): > 100 µM (inactive)
GI50 (EKVX): > 100 µM (inactive)
GI50 (SK-MEL-5): > 100 µM (inactive)
GI50 (786-0): > 100 µM (inactive)
GI50 (DU-145): > 100 µM (inactive)
GI50 (COLO 205): > 100 µM (inactive)
GI50 (SNB-19): > 100 µM (inactive)
GI50 (UACC-257): > 100 µM (inactive)
GI50 (U-251): > 100 µM (inactive)
GI50 (MOLT-4): 84.9 µM (inactive)
GI50 (A549): > 100 µM (inactive)
GI50 (UO-31): > 100 µM (inactive)
GI50 (HCT-15): > 100 µM
GI50 (IGROV-1): > 100 µM (inactive)
GI50 (SK-MEL-28): > 100 µM (inactive)
GI50 (SF-268): > 100 µM (inactive)
GI50 (OVCAR-4): > 100 µM (inactive)
GI50 (CAKI-1): > 100 µM (inactive)
GI50 (CCRF-CEM): > 100 µM (inactive)
GI50 (NCI-H522): > 100 µM (inactive)
GI50 (HCC 2998): > 100 µM (inactive)
GI50 (HCT-116): > 100 µM (inactive)
GI50 (M14): > 100 µM (inactive)
GI50 (A498): > 100 µM (inactive)
GI50 (OVCAR-3): 24.9 µM (inactive)
GI50 (SN12C): > 100 µM (inactive)
GI50 (TK-10): > 100 µM (inactive)
GI50 (LOX IMVI): > 100 µM (inactive)
GI50 (MDA-MB-231): > 100 µM (inactive)
GI50 (BT-549): > 100 µM (inactive)
GI50 (Hs-578T): > 100 µM (inactive)
GI50 (OVCAR-8): > 100 µM (inactive)
GI50 (HOP-92): > 100 µM (inactive)
GI50 (MDA-MB-435): > 100 µM (inactive)
GI50 (HOP-62): > 100 µM (inactive)
GI50 (SR): > 100 µM (inactive)
GI50 (SK-OV-3): > 100 µM (inactive)
GI50 (NCI-H23): > 100 µM (inactive)
GI50 (NCI-H226): > 100 µM (inactive)
GI50 (MDA-N): > 100 µM (inactive)
GI50 (ACHN): > 100 µM (inactive)
GI50 (RPMI-8226): > 100 µM (inactive)
GI50 (HT-29): > 100 µM (inactive)
GI50 (SW-620): > 100 µM (inactive)

From ChEMBL document CHEMBL1201862, “PubChem BioAssay data set” (2004)
